Test results reported in patent publication US7405206B2, “Anti-inflammatory androstane derivatives” (Glaxo Group Limited, priority 2001, dated 2008).

Legend:
[1] = system: A549 cells stably transfected with a reporter gene containing the NF-κB responsive elements from the ELAM gene promoter coupled to sPAP; assay: Functional in vitro assay of glucocorticoid agonist activity (NF-κB/ELAM-sPAP reporter, TNF stimulated); assay type: cell-based; conditions: compound 1 hour at 37° C., then TNF 10 ng/ml for 16 hours
Method: Pharmacological activity was assessed in a functional in vitro assay of glucocorticoid agonist activity which is generally predictive of anti-inflammatory or anti-allergic activity in vivo.
The functional assay was based on that described by K. P. Ray et al., Biochem J. (1997), 328, 707-715. A549 cells stably transfected with a reporter gene containing the NF-κB responsive elements from the ELAM gene promoter coupled to sPAP (secreted alkaline phosphatase) were treated with test compounds at appropriate doses for 1 hour at 37° C. The cells were then stimulated with tumour necrosis factor (TNF, 10 ng/ml) for 16 hours, at which time the amount of alkaline phosphatase produced is measured by a standard colourimetric assay. Dose response curves were constructed from which EC50 values were estimated.

[2] = system: Balb/c mice; assay: Oxazolone induced contact hypersensitivity model (ear swelling); assay type: in vivo; conditions: topical to right ear 1 hour prior to and 3 hours post oxazolone challenge; ear thickness 24 hours post challenge
Method: Pharmacological activity in vivo was assessed using an oxazolone induced contact hypersensitivity model in Balb/c mice similar to that described by Cumberbatch et al., Immunology (2002), 105, 466-477.
Balb/c female mice (18-20 g) were sensitised to oxazolone by the addition of 50 μl to the shaved right flank, of 2.5% oxazolone in acetone:olive oil (4:1). Control (unsensitised) mice were dosed with acetone:olive oil. Five days later all mice were challenged by the addition of 25 μl of 0.25% oxazolone in acetone olive oil (4:1) to the dorsal surface of both ears under isoflourane anaesthesia. 10 μl of solution of test compound at the appropriate concentration or vehicle (absolute ethanol) was applied to the dorsal surface of the right ear 1 hour prior to and 3 hours post oxazolone challenge under isoflourane anaesthesia. The left ear remained untreated to allow assessment of systemic exposure. Ear thickness measurements were taken using an engineer's micrometer prior to the addition of steroid and again 24 hours post oxazolone challenge. Results expressed as the percentage inhibition of ear swelling, from which EC50 values were calculated.

[3] = system: Male CD rats; assay: Rat model of thymus involution (systemic steroid effects); assay type: in vivo; conditions: daily for 3 days
Method: Systemic steroid effects were assessed in a rat model of thymus involution. Male CD rats were dosed intra-tracheally daily for 3 days with saline vehicle (20 μl Tween 80 in 100 ml saline) or with a suspension of test compound (dose volume 200 μL). On day 4 the animals were culled and the thymus removed and weighed.

[4] = Hydrolysis in human plasma; assay type: in vitro ADME; conditions: 37°, 5 μg/ml, LC-MS/MS
Method: Compounds were incubated at 37° in human plasma at a concentration of 5 μg/ml. Aliquots were taken at time 0 and every 30 seconds for the next 10 minutes and were extracted by protein precipitation and analysed by LC-MS/MS.

`Cc1noc(C)c1C(=O)OC1(C(=O)SC2CCOC2=O)C(C)CC2C3CC(F)C4=CC(=O)C=CC4(C)C3(F)C(O)CC21C` (stereo not drawn) [Example 11, 6α,9α-Difluoro-17α-[(3,5-dimethylisoxazole-4-carbonyl)oxy]-11β-hydroxy-16α-methyl-3-oxo-androsta-1,4-diene-17β-carbothioic acid S-(2-oxo-tetrahydro-furan-3S-yl)ester] showed an EC50 [1] of 28 nM.
With `C[C@@H]1C[C@H]2[C@@H]3C[C@H](F)C4=CC(=O)C=C[C@]4(C)[C@@]3(F)[C@@H](O)C[C@]2(C)[C@@]1(OC(=O)c1ccco1)C(=O)S[C@H]1CCOC1=O` [Example 1, 6α,9α-Difluoro-17α-[(2-furanylcarbonyl)oxy]-11β-hydroxy-16α-methyl-3-oxo-androsta-1,4-diene-17β-carbothioic acid S-(2-oxo-tetrahydro-furan-3S-yl)ester] the “EC50 (inhibition of ear swelling)” value [2] was 0.3 µg, the “effect on thymus weight” value ([3]; 1000 μg/day intra-tracheally) was “no effect” and the half-life [4] was 1.2 min.
Work on `CC1CC2C3CC(F)C4=CC(=O)C=CC4(C)C3(F)C(O)CC2(C)C1(OC(=O)c1cc(Cl)sc1Cl)C(=O)SC1CCOC1=O` (stereo not drawn) [Example 15, 17α-[(2,5-Dichlorothiophene-3-carbonyl)oxy]-6α,9α-difluoro-11β-hydroxy-16α-methyl-3-oxo-androsta-1,4-diene-17β-carbothioic acid S-(2-oxo-tetrahydro-furan-3S-yl)ester] yielded an EC50 [1] of 16 nM.
Work on `COc1c(C(=O)OC2(C(=O)SC3CCOC3=O)C(C)CC3C4CC(F)C5=CC(=O)C=CC5(C)C4(F)C(O)CC32C)csc1Cl` (stereo not drawn) [Example 12, 17α-[(5-Chloro-4-methoxy-thiophene-3-carbonyl)oxy]-6α,9α-difluoro-11β-hydroxy-16α-methyl-3-oxo-androsta-1,4-diene-17β-carbothioic acid S-(2-oxo-tetrahydro-furan-3S-yl)ester] yielded an EC50 [1] of 40 nM.
With `CCCC1O[C@@H]2C[C@H]3[C@@H]4CCC5=CC(=O)C=C[C@]5(C)[C@H]4[C@@H](O)C[C@]3(C)[C@]2(C(=O)CO)O1` (stereo partly shown) [budesonide, reference compound] the “reduction in thymus weight” value ([3]; 100 mg/day intra-tracheally) was 65%.
